{"source": "patent US20150010928A1", "about": "“MEANS AND METHODS FOR ASSESSING AN ENDOCRINE DISEASE OR DISORDER” (priority 2012, published 2015)", "system": "female rats", "experiment": "Plasma metabolite profiling (GC-MS, LC-MS, SPE-LC-MS) in female rats dosed once daily over 28 days (OECD 407)", "assay_type": "in vivo, rat", "details": "high dose", "in_short": "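Polar and lipid fractions profiled by GC-MS and LC-MS/MRM, steroids by online SPE-LC-MS; pool-normalized data compared to controls by Welch test as treatment ratios and p-values.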", "note": "Marks after values point to notes of the source that are not given here."}
{"smiles": "C[C@]12C=CC3=C4CCC(=O)C=C4CCC3C1CC[C@@H]2O", "note": "(stereo partly drawn) [Trenbolone]", "values": [{"measurement": "3-Hydroxybutyrate", "setting": "f7, female rats, Table 15a", "value": "2.05 *"}, {"measurement": "DAG (C18:1,C18:2)", "setting": "f7, female rats, Table 15a", "value": "1.42 *"}, {"measurement": "Glutamate", "setting": "f7, female rats, Table 15a", "value": 1.18}, {"measurement": "Glycine", "setting": "f7, female rats, Table 15a", "value": "1.18 *"}, {"measurement": "Phosphatidylcholine (C16:0,C20:5)", "setting": "f7, female rats, Table 15a", "value": 1.09}, {"measurement": "TAG (C16:0,C16:1)", "setting": "f7, female rats, Table 15a", "value": "1.49 *"}, {"measurement": "TAG (C16:0,C18:1,C18:3)", "setting": "f7, female rats, Table 15a", "value": "1.48 *"}, {"measurement": "TAG (C16:0,C18:2)", "setting": "f7, female rats, Table 15a", "value": "1.83 *"}, {"measurement": "TAG (C18:1,C18:2)", "setting": "f7, female rats, Table 15a", "value": "1.72 *"}, {"measurement": "TAG (C18:2,C18:2)", "setting": "f7, female rats, Table 15a", "value": "1.61 *"}, {"measurement": "TAG (C18:3, C18:2, C18:1)", "setting": "f7, female rats, Table 15a", "value": "1.92 *"}, {"measurement": "TAG (DAG-Fragment)", "setting": "f7, female rats, Table 15a", "value": "1.8 *"}, {"measurement": "TAG No 059", "setting": "f7, female rats, Table 15a", "value": "1.62 *"}, {"measurement": "Threonic acid", "setting": "f7, female rats, Table 15a", "value": "1.28 *"}, {"measurement": "trans-4-Hydroxyproline", "setting": "f7, female rats, Table 15a", "value": "1.31 *"}, {"measurement": "Androstenedione", "setting": "f7, female rats, Table 15b", "value": "0.3 *"}, {"measurement": "Arginine", "setting": "f7, female rats, Table 15b", "value": "0.76 *"}, {"measurement": "Campesterol", "setting": "f7, female rats, Table 15b", "value": "0.53 *"}, {"measurement": "Ceramide (d18:1,C24:0)", "setting": "f7, female rats, Table 15b", "value": "0.5 *"}, {"measurement": "Lactate", "setting": "f7, female rats, Table 15b", "value": "0.65 *"}, {"measurement": "Lysine", "setting": "f7, female rats, Table 15b", "value": "0.68 *"}, {"measurement": "Metanephrine", "setting": "f7, female rats, Table 15b", "value": 1}, {"measurement": "Normetanephrine", "setting": "f7, female rats, Table 15b", "value": "0.83 *"}, {"measurement": "Phosphatidylcholine (C16:0,C20:5)", "setting": "f7, female rats, Table 15b", "value": 1.09}, {"measurement": "Phosphatidylcholine (C16:0,C22:6)", "setting": "f7, female rats, Table 15b", "value": 0.89}, {"measurement": "Phosphatidylcholine (C18:0, C20:3)", "setting": "f7, female rats, Table 15b", "value": "0.77 *"}, {"measurement": "Phosphatidylcholine (C18:0,C18:1)", "setting": "f7, female rats, Table 15b", "value": 0.84}, {"measurement": "Progesterone", "setting": "f7, female rats, Table 15b", "value": "0.34 *"}, {"measurement": "Pyruvate", "setting": "f7, female rats, Table 15b", "value": "0.57 *"}, {"measurement": "Sphingomyelin (d18:1,C23:0)", "setting": "f7, female rats, Table 15b", "value": "0.51 *"}, {"measurement": "Sphingomyelin (d18:1,C24:0)", "setting": "f7, female rats, Table 15b", "value": "0.62 *"}, {"measurement": "Urea", "setting": "f7, female rats, Table 15b", "value": "0.74 *"}, {"measurement": "3-Hydroxybutyrate", "setting": "f14, female rats, Table 15a", "value": "1.73 *"}, {"measurement": "DAG (C18:1,C18:2)", "setting": "f14, female rats, Table 15a", "value": 1.56}, {"measurement": "Glutamate", "setting": "f14, female rats, Table 15a", "value": "1.13 *"}, {"measurement": "Glycine", "setting": "f14, female rats, Table 15a", "value": "1.2 *"}, {"measurement": "Phosphatidylcholine (C16:0,C20:5)", "setting": "f14, female rats, Table 15a", "value": "1.18 *"}, {"measurement": "TAG (C16:0,C16:1)", "setting": "f14, female rats, Table 15a", "value": 1.41}, {"measurement": "TAG (C16:0,C18:1,C18:3)", "setting": "f14, female rats, Table 15a", "value": "2.26 *"}, {"measurement": "TAG (C16:0,C18:2)", "setting": "f14, female rats, Table 15a", "value": 1.9}, {"measurement": "TAG (C18:1,C18:2)", "setting": "f14, female rats, Table 15a", "value": "1.97 *"}, {"measurement": "TAG (C18:2,C18:2)", "setting": "f14, female rats, Table 15a", "value": "2.21 *"}, {"measurement": "TAG (C18:3, C18:2, C18:1)", "setting": "f14, female rats, Table 15a", "value": "2.39 *"}, {"measurement": "TAG (DAG-Fragment)", "setting": "f14, female rats, Table 15a", "value": "2.67 *"}, {"measurement": "TAG No 059", "setting": "f14, female rats, Table 15a", "value": "2.14 *"}, {"measurement": "Threonic acid", "setting": "f14, female rats, Table 15a", "value": "1.76 *"}, {"measurement": "trans-4-Hydroxyproline", "setting": "f14, female rats, Table 15a", "value": "1.37 *"}, {"measurement": "Androstenedione", "setting": "f14, female rats, Table 15b", "value": "0.15 *"}, {"measurement": "Arginine", "setting": "f14, female rats, Table 15b", "value": "0.69 *"}, {"measurement": "Campesterol", "setting": "f14, female rats, Table 15b", "value": "0.4 *"}, {"measurement": "Ceramide (d18:1,C24:0)", "setting": "f14, female rats, Table 15b", "value": "0.41 *"}, {"measurement": "Lactate", "setting": "f14, female rats, Table 15b", "value": "0.56 *"}, {"measurement": "Lysine", "setting": "f14, female rats, Table 15b", "value": "0.62 *"}, {"measurement": "Metanephrine", "setting": "f14, female rats, Table 15b", "value": 1.03}, {"measurement": "Normetanephrine", "setting": "f14, female rats, Table 15b", "value": "0.83 *"}, {"measurement": "Phosphatidylcholine (C16:0,C20:5)", "setting": "f14, female rats, Table 15b", "value": 1.18}, {"measurement": "Phosphatidylcholine (C16:0,C22:6)", "setting": "f14, female rats, Table 15b", "value": "0.87 *"}, {"measurement": "Phosphatidylcholine (C18:0, C20:3)", "setting": "f14, female rats, Table 15b", "value": "0.75 *"}, {"measurement": "Phosphatidylcholine (C18:0,C18:1)", "setting": "f14, female rats, Table 15b", "value": "0.66 *"}, {"measurement": "Progesterone", "setting": "f14, female rats, Table 15b", "value": "0.17 *"}, {"measurement": "Pyruvate", "setting": "f14, female rats, Table 15b", "value": "0.61 *"}, {"measurement": "Sphingomyelin (d18:1,C23:0)", "setting": "f14, female rats, Table 15b", "value": "0.46 *"}, {"measurement": "Sphingomyelin (d18:1,C24:0)", "setting": "f14, female rats, Table 15b", "value": "0.64 *"}, {"measurement": "Urea", "setting": "f14, female rats, Table 15b", "value": "0.72 *"}, {"measurement": "3-Hydroxybutyrate", "setting": "f28, female rats, Table 15a", "value": "1.32 *"}, {"measurement": "DAG (C18:1,C18:2)", "setting": "f28, female rats, Table 15a", "value": "1.79 *"}, {"measurement": "Glutamate", "setting": "f28, female rats, Table 15a", "value": "1.23 *"}, {"measurement": "Glycine", "setting": "f28, female rats, Table 15a", "value": "1.37 *"}, {"measurement": "Phosphatidylcholine (C16:0,C20:5)", "setting": "f28, female rats, Table 15a", "value": "1.17 *"}, {"measurement": "TAG (C16:0,C16:1)", "setting": "f28, female rats, Table 15a", "value": "1.28 *"}, {"measurement": "TAG (C16:0,C18:1,C18:3)", "setting": "f28, female rats, Table 15a", "value": "2.48 *"}, {"measurement": "TAG (C16:0,C18:2)", "setting": "f28, female rats, Table 15a", "value": "2.08 *"}, {"measurement": "TAG (C18:1,C18:2)", "setting": "f28, female rats, Table 15a", "value": "2.25 *"}, {"measurement": "TAG (C18:2,C18:2)", "setting": "f28, female rats, Table 15a", "value": "2.7 *"}, {"measurement": "TAG (C18:3, C18:2, C18:1)", "setting": "f28, female rats, Table 15a", "value": "3.06 *"}, {"measurement": "TAG (DAG-Fragment)", "setting": "f28, female rats, Table 15a", "value": "3.12 *"}, {"measurement": "TAG No 059", "setting": "f28, female rats, Table 15a", "value": "2.7 *"}, {"measurement": "Threonic acid", "setting": "f28, female rats, Table 15a", "value": 0.84}, {"measurement": "trans-4-Hydroxyproline", "setting": "f28, female rats, Table 15a", "value": "1.66 *"}, {"measurement": "Androstenedione", "setting": "f28, female rats, Table 15b", "value": "0.23 *"}, {"measurement": "Arginine", "setting": "f28, female rats, Table 15b", "value": "0.78 *"}, {"measurement": "Campesterol", "setting": "f28, female rats, Table 15b", "value": 0.9}, {"measurement": "Ceramide (d18:1,C24:0)", "setting": "f28, female rats, Table 15b", "value": "0.69 *"}, {"measurement": "Lactate", "setting": "f28, female rats, Table 15b", "value": "0.59 *"}, {"measurement": "Lysine", "setting": "f28, female rats, Table 15b", "value": "0.65 *"}, {"measurement": "Metanephrine", "setting": "f28, female rats, Table 15b", "value": "0.47 *"}, {"measurement": "Normetanephrine", "setting": "f28, female rats, Table 15b", "value": "0.75 *"}, {"measurement": "Phosphatidylcholine (C16:0,C20:5)", "setting": "f28, female rats, Table 15b", "value": 1.17}, {"measurement": "Phosphatidylcholine (C16:0,C22:6)", "setting": "f28, female rats, Table 15b", "value": 0.93}, {"measurement": "Phosphatidylcholine (C18:0, C20:3)", "setting": "f28, female rats, Table 15b", "value": "0.87 *"}, {"measurement": "Phosphatidylcholine (C18:0,C18:1)", "setting": "f28, female rats, Table 15b", "value": "0.81 *"}, {"measurement": "Progesterone", "setting": "f28, female rats, Table 15b", "value": "0.3 *"}, {"measurement": "Pyruvate", "setting": "f28, female rats, Table 15b", "value": "0.72 *"}, {"measurement": "Sphingomyelin (d18:1,C23:0)", "setting": "f28, female rats, Table 15b", "value": "0.64 *"}, {"measurement": "Sphingomyelin (d18:1,C24:0)", "setting": "f28, female rats, Table 15b", "value": "0.74 *"}, {"measurement": "Urea", "setting": "f28, female rats, Table 15b", "value": "0.54 *"}]}
